How the values were obtained:
A549 cells = assay: Detection of carbonylation in live cells with hydrazide fluorophores; assay type: cell-based
Description: At the end of the incubation period with the OSA or vehicle, 1 μL of 2 mM fluorophore (final concentrations: fluorophore=10 μM; DMSO=0.5%, v/v) is added to one corner of each well, taking care not to touch the bottom of the well with the pipet tip, and mixed well, by gently moving the chambered coverglass in a circular motion (clockwise as well as counter-clockwise). The coverglass is then returned to the cell culture incubator and incubated for 30-45 min. The difference in fluorescence between the control and the sample may be affected by the time of incubation with the fluorophore and the cell line. The incubation time is adjusted based on the cell line and oxidant used. The medium is discarded and 500 μL fresh medium added to each well. The coverglass is returned to the cell culture incubator for 3 min. The washing step is repeated two more times. The final wash medium is discarded, and 200 μL of fresh medium added, and the cells imaged by, e.g., confocal microscopy.
A549 cells were treated with vehicle (0.1% DMSO, v/v) or 100 μM menadione for 1 h, followed by 10 μM DCCH, BODIPYH, TxRH or TFCH for 30 min. The medium was discarded, and fresh medium was added to the cells and allowed to incubate for 5 min. After an additional round of medium change, the cells were imaged live using a confocal laser scanning microscope.
FIGS. 9A-9C show quantitative analysis of carbonyls in live cells in high throughput platform: A549 cells grown in standard media (control) or serum free media (serum starved) for ˜24 h were allowed to react with 10 μM hydrazide fluorophores for 1 h. Cells were washed and the emission of respective samples were recorded. The excitation (ex) and emission (em) wavelengths used are as follows: (FIG. 9A) DCCH (ex: 405 nm; em: 475 nm); (FIG. 9B) BODIPYH (ex: 488 nm; em: 530 nm); (FIG. 9C) TxRH (ex: 543 nm; em: 620 nm). Fluorescence in each sample was normalized to cell density. The graphs represent fluorescence of the serum starved samples relative to the control samples.
The cells were washed and imaged live using a confocal microscope. […]

[1] = Absorption and emission spectra of hydrazide fluorophores and their hydrazones with propanal; assay type: physicochemical; conditions: 10 mM PB, pH 7 containing 0.5% DMSO (v/v); for Hydrazide + propanal Abs max / Hydrazide + propanal Em max: corresponding hydrazone with propanal
Description: FIGS. 15A-15F show absorption (top) and emission (bottom) spectra of (FIGS. 15A, 15B) DCCH, (FIGS. 15C, 15D) BODIPYH, and (FIGS. 15E, 15F) TxRH and their corresponding hydrazones with propanal in 10 mM PB, pH 7 containing 0.5% DMSO (v/v). The excitation wavelengths used for obtaining the emission spectra are as follows: DCCH (ex: 405 nm), BODIPYH (ex: 450 nm), TxRH (543 nm). The arrow in the absorption spectra denotes the wavelength of the excitation laser used in the microscopy experiments.

[2] = Reaction of TFCH with biomolecule ketones, cell-free systems versus living cells
Source text: It is believed that, in vivo, small molecules such as amino acids are involved in catalysis of the reaction.

[3] = Photochemical comparison of TFCH with BzCH; assay type: physicochemical
lung cancer (A549) cells = assay: Cellular influx and efflux of TFCH in live A549 cells; assay type: cell-based
Description: (§1) Oxidized BSA was used as a model carbonylated biomolecule and TFCH's ability to detect it in an isolated system was tested. […] Next, the compatibility of TFCH for cell-based assays was established using lung cancer (A549) cells as a model cell line. TFCH's influx and efflux were achieved readily (<5 min) (FIGS. 21D and 21E). […] Importantly, given the turn-up property of the fluorophore, it was possible to identify carbonyls in live cells in the presence of unreacted fluorophores by a one-step high content screening (HCS)-compatible assay. Low concentration of the dye (2 µM) can detect carbonyls induced by serum starvation in live cells within 30 min (FIG. 22C). This single-step (no wash) assay format may be particularly suitable for screening molecules that have a propensity to induce cell detachment. Alternatively, excess fluorophore can be removed and the cells can be either imaged live (FIGS. 21D and 21E) or can be fixed and preserved for analysis at a later time Indeed, a similar spatial distribution and increase in carbonylation due to serum starvation was detected in both live (FIGS. 5, 19B) and fixed cells (fixed after fluorescent labeling in live cells). […] See also, (Vemula, Ni, & Fedorova, 2015).
(§2) FIGS. 21A-21B, Limit of detection (LOD) of TFCZ (hydrazone of TFCH and propanal) in A549 cell lysate. […] Emission spectra of the lysates were recorded by exciting the samples at 372 nm.

[4] = Fluorescence quantum yield; assay type: physicochemical; conditions: in water; 'believed to have'
Source text: The fluorescence “quantum yield” (φ) is the ratio of the number of photons emitted to the number absorbed. The term fluorescence quantum yield (φ) is a measure of the efficiency of photon emission through fluorescence, which is the loss of energy by a substance that has absorbed light via emission of a photon. In other words, the fluorescence quantum yield gives the probability of the excited state being deactivated by fluorescence rather than by another, non-radiative mechanism such as internal conversion or vibrational relaxation (non-radiative loss of energy as heat to the surroundings). The fluorescence intensity (F) is proportional to the amount of light absorbed, F=φ(Io-I), where lo is the intensity of the incident light and l is the intensity transmitted. […] When the concentration of the fluorescent compound is low, the fluorescence intensity is given by the equation: […].
TFCH is believed to have a quantum yield of >0.1 in water. […] “Solvent effect on absolute fluorescence quantum yield of rhodamine 6G determined using transient thermal lens technique.” Modern physics letters B 13, no. […] “Fluorescence lifetime of acridine in water-organic solvent mixtures.” Bulletin of the Chemical Society of Japan 42, no. […]

oxidized BSA = oxidized BSA (Bos taurus, UniProt P02769); assay: Fluorescent labelling of oxidized BSA (SDS-PAGE); assay type: biochemical; conditions: isolated system, oxidized BSA as model carbonylated biomolecule
Description: as §1, §2

Sequence of oxidized BSA (P02769 25-607): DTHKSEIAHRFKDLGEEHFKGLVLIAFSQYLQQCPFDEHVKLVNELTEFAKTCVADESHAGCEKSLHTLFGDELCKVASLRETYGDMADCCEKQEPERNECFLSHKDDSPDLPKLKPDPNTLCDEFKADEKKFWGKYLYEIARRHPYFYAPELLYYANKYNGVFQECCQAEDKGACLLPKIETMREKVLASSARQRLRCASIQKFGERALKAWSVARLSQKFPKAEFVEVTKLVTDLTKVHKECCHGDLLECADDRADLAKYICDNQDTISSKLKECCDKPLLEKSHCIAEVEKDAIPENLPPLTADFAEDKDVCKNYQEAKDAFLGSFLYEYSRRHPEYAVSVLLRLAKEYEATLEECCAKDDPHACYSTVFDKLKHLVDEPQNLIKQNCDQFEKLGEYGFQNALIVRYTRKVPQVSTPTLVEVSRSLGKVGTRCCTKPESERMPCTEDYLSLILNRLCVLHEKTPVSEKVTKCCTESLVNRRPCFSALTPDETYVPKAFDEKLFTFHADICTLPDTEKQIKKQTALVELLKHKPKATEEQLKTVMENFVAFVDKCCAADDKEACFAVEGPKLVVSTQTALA

| Compound | suitability as optical probe for carbonylation in live cells (A549 cells) | Hydrazide + propanal Abs max [1] [nm] | Hydrazide + propanal Em max [1] [nm] | Hydrazide Abs max [1] [nm] | Hydrazide Em max [1] [nm] | reaction with biomolecule ketones in cell-free systems relative to living cells [2] | photostability compared with BzCH [3] | absorption at 405 nm compared with BzCH ([3]; 405 nm) | influx and efflux time (lung cancer (A549) cells) [min] | quantum yield [4] | labelling of oxidized BSA (oxidized BSA) |
| --- | --- | --- | --- | --- | --- | --- | --- | --- | --- | --- | --- |
| CCN(CC)c1ccc2cc(C(=O)NN)c(=O)oc2c1 [DCCH, 7-(diethylamino)coumarin-3-carbohydrazide] | found suitable as optical probes for carbonylation in live cells | 439 | 481 | 429 | 479 |  |  |  |  |  |  |
| Cc1cc(C)n2c1C=C1C=CC(CCC(=O)NN)=[N+]1[B-]2(F)F [BODIPYH] | found suitable as optical probes for carbonylation in live cells | 503 | 510 | 503 | 510 |  |  |  |  |  |  |
| NNc1ccc2c(C(F)(F)F)cc(=O)oc2c1 [TFCH, 4-Trifluoromethyl-7-hydrazinyl-2H-chromen-2-one] |  |  |  |  |  | eight hundred times slower | more photostable than BzCH | higher absorption at 405 nm than the BzCH | < 5 | > 0.1 | able to fluorescently label oxidized BSA and form a stable conjugate |
| NNS(=O)(=O)c1ccc(C2=c3cc4c5c(c3Oc3c2cc2c6c3CCCN6CCC2)CCC[N+]=5CCC4)c(S(=O)(=O)[O-])c1 [TxRH] | found suitable as optical probes for carbonylation in live cells | 589 | 607 | 589 | 607 |  |  |  |  |  |  |
